Experiments:
[1] = Inhibition of ALR2 in calf lens using D,L-glyceraldehyde as substrate in presence of NADPH by spectrophotometric assay; type: tissue-based, Bos taurus
[2] = target: T1, Tyrosine-protein phosphatase non-receptor type 1 (Homo sapiens, UniProt P18031); assay: Inhibition of PTP1B (unknown origin)
T1 sequence (P18031 whole entry): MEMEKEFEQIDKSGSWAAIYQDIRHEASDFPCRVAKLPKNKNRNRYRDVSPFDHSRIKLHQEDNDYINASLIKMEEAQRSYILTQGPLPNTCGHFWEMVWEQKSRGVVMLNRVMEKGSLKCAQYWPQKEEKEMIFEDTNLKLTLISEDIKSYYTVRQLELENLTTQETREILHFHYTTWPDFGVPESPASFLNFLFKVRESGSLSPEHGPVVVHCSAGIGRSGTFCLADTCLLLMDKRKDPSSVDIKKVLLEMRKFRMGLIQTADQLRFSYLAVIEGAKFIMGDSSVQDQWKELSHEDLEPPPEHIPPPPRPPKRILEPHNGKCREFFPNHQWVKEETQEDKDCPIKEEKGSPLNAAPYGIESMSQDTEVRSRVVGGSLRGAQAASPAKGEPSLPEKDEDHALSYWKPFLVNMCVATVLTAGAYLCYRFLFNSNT

[3] = target: T1, Tyrosine-protein phosphatase non-receptor type 1; assay: Inhibition of human PTP1B (1 to 298 residues) expressed in Escherichia coli using FDP as substrate by microplate reader
Homo sapiens [4] = species on record: Homo sapiens; assay: Selectivity ratio of IC50 for human PTP1B (1 to 321 residues) to IC50 for human CD45 (564 to […] residues)
[5] = target: T1, Tyrosine-protein phosphatase non-receptor type 1; assay: Inhibition of human PTP1B (1 to 321 residues) expressed in Escherichia coli using FDP as substrate
[6] = target: Aldo-keto reductase family 1 member B1 (Homo sapiens, UniProt P15121); assay: Inhibition of ALR2 (unknown origin)
[7] = target: T1, Tyrosine-protein phosphatase non-receptor type 1; assay: Inhibition of PTP1B (unknown origin) using OMFP as substrate by fluorescence assay
[8] = target: T1, Tyrosine-protein phosphatase non-receptor type 1; assay: Inhibition of human PTP1B (1 to 411 residues) expressed in Escherichia coli BL21 (DE3) using GNGDpYMPMSPKS as phosphopeptide substrate incubated for 30 mins by malachite green reagent assay
[9] = target: T2, Receptor-type tyrosine-protein phosphatase C (Homo sapiens, UniProt P08575); assay: Inhibition of human CD45 (564 to […] residues) expressed in Escherichia coli using FDP as substrate incubated for 10 min
T2 sequence (P08575 whole entry): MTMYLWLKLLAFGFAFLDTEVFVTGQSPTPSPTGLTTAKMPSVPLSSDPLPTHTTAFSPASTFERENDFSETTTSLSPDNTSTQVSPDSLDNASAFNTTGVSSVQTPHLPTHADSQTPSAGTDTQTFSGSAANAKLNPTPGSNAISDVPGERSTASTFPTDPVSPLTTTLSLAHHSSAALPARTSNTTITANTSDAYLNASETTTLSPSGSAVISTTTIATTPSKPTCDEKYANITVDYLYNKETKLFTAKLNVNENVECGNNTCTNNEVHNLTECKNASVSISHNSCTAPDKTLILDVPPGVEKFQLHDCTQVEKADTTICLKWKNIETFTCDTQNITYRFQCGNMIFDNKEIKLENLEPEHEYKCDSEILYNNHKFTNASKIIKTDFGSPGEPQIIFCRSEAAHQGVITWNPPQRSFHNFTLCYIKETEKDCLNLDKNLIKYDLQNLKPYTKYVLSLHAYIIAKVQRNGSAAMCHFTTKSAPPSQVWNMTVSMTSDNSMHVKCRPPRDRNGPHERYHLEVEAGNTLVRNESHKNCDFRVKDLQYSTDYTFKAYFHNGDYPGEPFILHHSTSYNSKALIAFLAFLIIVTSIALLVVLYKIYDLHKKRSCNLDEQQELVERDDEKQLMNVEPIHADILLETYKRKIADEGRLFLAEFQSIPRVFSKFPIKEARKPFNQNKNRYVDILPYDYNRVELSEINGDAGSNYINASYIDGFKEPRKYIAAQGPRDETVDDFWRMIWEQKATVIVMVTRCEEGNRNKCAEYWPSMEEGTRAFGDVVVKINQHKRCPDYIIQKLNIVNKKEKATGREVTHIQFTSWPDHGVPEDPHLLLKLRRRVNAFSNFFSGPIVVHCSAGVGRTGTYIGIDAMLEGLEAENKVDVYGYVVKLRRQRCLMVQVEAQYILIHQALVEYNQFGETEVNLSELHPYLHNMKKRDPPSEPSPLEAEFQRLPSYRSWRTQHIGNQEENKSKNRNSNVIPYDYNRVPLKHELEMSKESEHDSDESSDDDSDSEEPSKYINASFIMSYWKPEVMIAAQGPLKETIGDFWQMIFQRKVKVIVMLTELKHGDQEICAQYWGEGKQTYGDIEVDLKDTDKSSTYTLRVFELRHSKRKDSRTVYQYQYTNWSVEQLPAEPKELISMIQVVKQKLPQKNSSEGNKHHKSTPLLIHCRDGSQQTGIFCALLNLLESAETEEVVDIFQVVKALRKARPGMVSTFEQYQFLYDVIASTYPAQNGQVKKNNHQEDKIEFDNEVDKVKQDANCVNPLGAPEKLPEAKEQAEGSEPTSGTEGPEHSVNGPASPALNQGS

[10] = Inhibition of ALR2 in rat lens using D,L-glyceraldehyde as substrate in presence of NADPH; type: tissue-based
Homo sapiens [11] = species on record: Homo sapiens; assay: Selectivity ratio of Ki for PTP1B (unknown origin) to Ki for TCPTP (unknown origin)

O=C(O)CCCCCO/N=C(\c1ccnnc1)c1cccc(C(F)(F)F)c1
IC50 [1]: 10000 nM

C/C(=C\Cn1oc(=O)[nH]c1=O)c1cccc(OCc2nc(-c3ccc(C(F)(F)F)cc3)oc2-c2ccccc2)c1
IC50 [2]: 300 nM

O=P(O)(O)C(F)(F)c1ccc(C[C@](/C=C/c2ccccc2)(c2nc3ccccc3s2)n2nnc3ccccc32)cc1
IC50 [3]: 23 nM

CCCCCCCCCCCCCCOc1ccccc1NC(=O)c1c(C(=O)O)cc(Cl)c(Cl)c1Cl
IC50 [2]: 180 nM

CCCCCCCCCCCCCCOc1ccccc1NC(=O)c1cccc(F)c1C(=O)O
IC50 [2]: 106 nM

CCc1cc(CC(NC(C)=O)C(=O)NCCCCC(=O)N[C@@H](CCSC)C(=O)O)ccc1N(C(=O)C(=O)O)c1ccccc1C(=O)O (stereo not given in full)
IC50 [2]: 77 nM

CCCCCCCC/C(=C\Cn1oc(=O)[nH]c1=O)c1cccc(OCc2nc(-c3ccc(C(F)(F)F)cc3)oc2C)c1
IC50 [2]: 400 nM

CCCCCNC(=O)[C@H](Cc1cccc(OCC(=O)O)c1C(=O)O)NC(=O)[C@H](Cc1ccccc1)NC(=O)Oc1ccccc1
IC50 [2]: 870 nM

O=C(OCc1ccccc1)C(Cc1ccc(C(F)(F)P(=O)(O)O)cc1)(Cc1ccc(C(F)(F)P(=O)(O)O)cc1)C(=O)OCc1ccccc1
Ratio IC50 (Homo sapiens [4]): 250
IC50 [5]: 40 nM

C/C(=N\NC(=S)Nc1cccc(F)c1)c1ccc2c(c1)NC(=O)CO2
IC50 [6]: 190 nM

Cc1ccc(S(=O)(=O)N(Cc2ccc(C(=O)C(F)(F)P(=O)(O)O)cc2)Cc2ccc(C(=O)C(F)(F)P(=O)(O)O)cc2)cc1
IC50 [7]: 500 nM

CS(=O)(=O)Oc1c(Cl)cccc1Cc1ccc(N2CC(=O)NS2(=O)=O)c(O)c1
IC50 [8]: 80 nM

O=[N+]([O-])c1cc(S(=O)(=O)C(F)(F)F)ccc1Oc1ccc(S(=O)(=O)c2ccc(Oc3ccc(S(=O)(=O)C(F)(F)F)cc3[N+](=O)[O-])cc2)cc1
IC50 [2]: 400 nM

O=C(O)CCCCO/N=C(\c1cccc(C(F)(F)F)c1)c1ccncn1
IC50 [1]: 12000 nM

CCCCCCCCc1ccc(-n2c(C)ccc2-c2ccc(O[C@@H](Cc3ccccc3)C(=O)O)cc2)cc1
IC50 [2]: 90 nM

O=C(c1ccccc1)C(Cc1ccc(C(F)(F)P(=O)(O)O)c(Br)c1)c1ccccc1 (stereo not given)
IC50 [9]: > 50000 nM
IC50 [5]: 6 nM

CC(C(=O)O)N1C(=O)C(=O)N(Cc2ccc(Cl)c(Cl)c2)C1=O (stereo not given)
IC50 [10]: 75 nM

O=C(c1ccccc1)C(Cc1ccc(C(F)(F)P(=O)(O)O)c(Cl)c1)c1ccccc1 (stereo not given)
IC50 [9]: > 50000 nM
IC50 [5]: 6 nM

O=C1CN(c2c(O)cc(CC3CCCCC3)cc2F)S(=O)(=O)N1
IC50 [8]: 80 nM

COc1cccc2c1C=CC1CC(=O)N(C/C=C/C(=O)O)N=C21 (stereo not given)
IC50 [1]: 4250 nM

O=C(O)CNC(=O)c1ccc(N2C(=O)/C(=C/c3cn(-c4ccccc4)nc3-c3cccc(F)c3)SC2=S)cc1
IC50 [6]: 40 nM

COc1cccc2c1C=CC1CC(=O)N(/C=C/CC(=O)O)N=C21 (stereo not given)
IC50 [1]: 3900 nM

CCCCCCCC/C(=C/Cn1oc(=O)[nH]c1=O)c1cccc(OCc2nc(-c3ccc(C(F)(F)F)cc3)oc2C)c1
IC50 [2]: 200 nM

O=C(O)C(=O)Nc1sc2c(c1C(=O)O)CCN(CCc1ccccc1)C2
Ratio Ki (Homo sapiens [11]): 2

CCc1cc(Br)ccc1S(=O)(=O)N(Cc1ccc(C(=O)C(F)(F)P(=O)(O)O)cc1)Cc1ccc(C(=O)C(F)(F)P(=O)(O)O)cc1
IC50 [7]: 500 nM

CCCCCCCC/C(=C/Cn1oc(=O)n(CC(=O)O)c1=O)c1cccc(OCc2nc(-c3ccc(C(F)(F)F)cc3)oc2C)c1
IC50 [2]: 120 nM

O=[N+]([O-])c1ccccc1Sc1ccc(O)cc1
IC50 [1]: 580 nM

O=C(O)C(=O)c1sc2c(c1C(=O)O)CCN[C@@H]2CNCc1ccc(O)cc1
IC50 [2]: 200 nM

CC(C)(C)OC(=O)COc1ccc(CC2=C(c3c[nH]c4ccccc34)c3ccccc3C(=O)C2=O)cc1
IC50 [2]: 650 nM

O=C1CN(c2ccc(-c3ccc[nH]3)cc2O)S(=O)(=O)N1
IC50 [8]: 80 nM

O=C(c1ccc(CN(Cc2ccc(C(=O)C(F)(F)P(=O)(O)O)cc2)S(=O)(=O)c2cc(F)ccc2F)cc1)C(F)(F)P(=O)(O)O
IC50 [7]: 500 nM

CC(C)OC(=O)c1cc(CC(Cc2ccc(C(F)(F)P(=O)(O)O)cc2)(C(=O)c2ccccc2)c2ccccc2)ccc1C(F)(F)P(=O)(O)O (stereo not given)
IC50 [9]: > 50000 nM
IC50 [5]: 6 nM

CCCCCCCC/C(=C\Cn1oc(=O)n(CC(=O)O)c1=O)c1cccc(OCc2nc(-c3ccc(C(F)(F)F)cc3)oc2C)c1
IC50 [2]: 160 nM

O=C(Cc1ccccc1)C(Cc1ccc(C(F)(F)P(=O)(O)O)cc1)(Cc1ccc(C(F)(F)P(=O)(O)O)cc1)C(=O)Cc1ccccc1
Ratio IC50 (Homo sapiens [4]): 250
IC50 [5]: 40 nM

CCc1cc(CC(NC(C)=O)C(=O)NCCCCOc2cc(Cl)cc(O)c2C(=O)OC)ccc1N(C(=O)C(=O)O)c1ccccc1C(=O)O (stereo not given)
Ratio Ki (Homo sapiens [11]): 6

Oc1c(Br)cc(-c2ncc(-c3ccccc3)s2)c(Br)c1O
IC50 [2]: 540 nM

O=C1C(=O)N(C2(C(=O)O)CCCCC2)C(=O)N1Cc1ccc(Cl)cc1Cl
IC50 [10]: 50 nM

O=C(c1ccc(CN(Cc2ccc(C(=O)C(F)(F)P(=O)(O)O)cc2)S(=O)(=O)c2ccc(Br)cc2OC(F)(F)F)cc1)C(F)(F)P(=O)(O)O
IC50 [7]: 500 nM

COC(=O)C(Cc1ccc(C(F)(F)P(=O)(O)O)cc1)(Cc1ccc(C(F)(F)P(=O)(O)O)cc1)C(=O)OCc1ccccc1
Ratio IC50 (Homo sapiens [4]): 250
IC50 [5]: 40 nM

CCCCCCCCCCCCCCCCOc1ccccc1NC(=O)c1ncccc1C(=O)O
IC50 [2]: 140 nM

Cc1cccc(-c2nn(-c3ccccc3)cc2/C=C2\SC(=S)N(c3ccc(C(=O)NCC(=O)O)cc3)C2=O)c1
IC50 [6]: 60 nM

O=C(c1ccccc1)C(Cc1ccc(C(F)(F)P(=O)(O)O)cc1)(Cc1ccc(C(F)(F)P(=O)(O)O)cc1)c1ccccc1
IC50 [9]: > 50000 nM
IC50 [5]: 6 nM

CC(C)OC(=O)C(Cc1ccc(C(F)(F)P(=O)(O)O)cc1)(Cc1ccc(C(F)(F)P(=O)(O)O)cc1)C(=O)OC(C)C
Ratio IC50 (Homo sapiens [4]): 250
IC50 [5]: 40 nM

O=P(O)(O)C(F)(F)c1ccc(C[C@](c2ccc(C(F)(F)P(=O)(O)O)cc2)(c2ccc(F)c(F)c2)n2nnc3ccccc32)cc1
IC50 [3]: 13 nM

O=P(O)(O)C(F)(F)c1ccc(C[C@@](c2ccccc2)(c2ccc(C(F)(F)P(=O)(O)O)cc2)n2nnc3ccccc32)cc1
IC50 [3]: 16 nM

COc1ccc2cc(O)c(N3CC(=O)NS3(=O)=O)cc2c1
IC50 [8]: 80 nM

C/C(=N\NC(=S)Nc1cccc(Br)c1)c1ccc2c(c1)NC(=O)CO2
IC50 [6]: 520 nM

Source: ChEMBL document CHEMBL5244260, “Aldose reductase and protein tyrosine phosphatase 1B inhibitors as a promising therapeutic approach for diabetes mellitus” (Eur J Med Chem, 2020)
